In patent US8623879B2, “1-heterocyclyl-1,5-dihydro-pyrazolo[3,4-D] pyrimidin-4-one derivates and their use as PDE9A modulators” (Boehringer Ingelheim International GmbH, priority 2008, dated 2014):

Target: T1, human PDE9A2 (Homo sapiens, UniProt O76083)
T1 construct: made in house; host or cells: Sf9 insect cells (infected); crude lysate used as enzyme source
Assay: PDE9A2 enzymatic activity assay (scintillation proximity assay, SPA)
Assay type: biochemical
Conditions: for inhibition at 10 µM: read-out: % inhibition of PDE9A2 (at 10 micromolar concentration), 10 micromolar concentration; for inhibition at 10 µM / % inhibition of PDE9A2 (at 10 micromolar concentration): values above 100% adjusted to 100%; for IC50: reported only as range 1-100 or 101-1200 nanomolar, specific value lies within range, read-out: IC50 within range [nanomolar (nM)]

T1 sequence (O76083 1-533 isoform O76083-2): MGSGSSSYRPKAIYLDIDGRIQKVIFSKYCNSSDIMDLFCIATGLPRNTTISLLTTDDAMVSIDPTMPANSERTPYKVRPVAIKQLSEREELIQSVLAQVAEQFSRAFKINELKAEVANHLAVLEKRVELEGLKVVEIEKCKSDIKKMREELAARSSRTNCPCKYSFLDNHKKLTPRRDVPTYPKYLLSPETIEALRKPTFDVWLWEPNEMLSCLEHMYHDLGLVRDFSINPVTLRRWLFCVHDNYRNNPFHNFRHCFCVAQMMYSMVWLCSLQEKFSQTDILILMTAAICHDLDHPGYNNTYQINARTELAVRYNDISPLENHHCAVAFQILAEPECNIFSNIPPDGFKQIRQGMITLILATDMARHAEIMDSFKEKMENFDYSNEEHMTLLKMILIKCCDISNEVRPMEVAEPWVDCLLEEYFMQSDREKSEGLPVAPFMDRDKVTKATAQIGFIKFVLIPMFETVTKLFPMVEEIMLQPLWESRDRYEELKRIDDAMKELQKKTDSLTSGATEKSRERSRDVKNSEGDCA

inhibition at 10 µM | IC50 | % inhibition of PDE9A2 (at 10 micromolar concentration) | Compound
78% | 101 to 1200 nM | – | O=c1[nH]c(CC2CCOC2)nc2c1cnn2C1CCOC1 (mixture of isomers) [Example 81]
96% | 1 to 100 nM | – | CCCc1nc2c(cnn2C2CCOCC2)c(=O)[nH]1 [Example 29]
93% | 101 to 1200 nM | – | O=c1[nH]c(CC2CC2)nc2c1cnn2C1CC[S+]([O-])CC1 (stereo not shown) [Example 236]
97% | 1 to 100 nM | – | O=c1[nH]c(C(F)c2ccccc2)nc2c1cnn2C1CCOCC1 (racemic) [Example 12]
100% | 101 to 1200 nM | – | COc1ccccc1CCc1nc2c(cnn2C2CCOCC2)c(=O)[nH]1 [Example 40-3]
83% | 101 to 1200 nM | – | O=c1[nH]c(Cc2ccccc2)nc2c1cnn2C1CCNCC1 [Example 202]
100% | 1 to 100 nM | – | O=c1[nH]c(Cc2cccc(C(F)(F)F)c2)nc2c1cnn2C1CCCNC1 (racemic) [Example 205]
– | 1 to 100 nM | 95% | CCC(Cc1nc2c(cnn2C2CCOCC2)c(=O)[nH]1)C(F)(F)F (single isomer, unassigned) [Example 62]
97% | 1 to 100 nM | – | O=c1[nH]c(CC2CC2)nc2c1cnn2C1CCOCC1 [Example 47]
97% | 1 to 100 nM | – | CN1CCC(n2ncc3c(=O)[nH]c(Cc4ccccc4)nc32)C1 (racemic) [Example 210]
92% | 101 to 1200 nM | – | CCOc1ccccc1Cc1nc2c(cnn2C2CCCN(C(=O)c3ccccc3)C2)c(=O)[nH]1 (racemic) [Example 178]
91% | 101 to 1200 nM | – | CCOc1ccccc1Cc1nc2c(cnn2C2CCCN(C(C)=O)C2)c(=O)[nH]1 (racemic) [Example 179]
86% | 101 to 1200 nM | – | CCC(Cc1nc2c(cnn2C2CCCN(C(C)=O)C2)c(=O)[nH]1)C(F)(F)F (mixture of isomers) [Example 173]
85% | 101 to 1200 nM | – | CC(=O)N1CCCC(n2ncc3c(=O)[nH]c(Cc4ccccn4)nc32)C1 (racemic) [Example 176]
100% | 101 to 1200 nM | – | COc1ccc(C#N)c(Cc2nc3c(cnn3C3CCOCC3)c(=O)[nH]2)c1 [Example 35]
100% | 1 to 100 nM | – | CC(C)(C)OC(=O)N1CCCC(n2ncc3c(=O)[nH]c(CC4CCC4)nc32)C1 (racemic) [Example 32]
96% | 1 to 100 nM | – | CCC(Cc1nc2c(cnn2C2CCOCC2)c(=O)[nH]1)C(F)(F)F (racemic) [Example 48]
87% | 101 to 1200 nM | – | O=c1[nH]c(CC2CC2)nc2c1cnn2C1CCCCO1 (racemic) [Example 147-2]
99% | 1 to 100 nM | – | O=c1[nH]c(Cc2ccc(F)c(Cl)c2)nc2c1cnn2C1CCOCC1 [Example 137]
99% | 101 to 1200 nM | – | O=c1[nH]c(CC2CCCC2)nc2c1cnn2C1CCCN(CC(F)F)C1 (racemic) [Example 193]
99% | 1 to 100 nM | – | O=c1[nH]c(CC2CCCCC2)nc2c1cnn2C1CCCOC1 (racemic) [Example 103]
99% | 1 to 100 nM | – | O=c1[nH]c(CCC2CCCC2)nc2c1cnn2C1CCOCC1 [Example 9]

inhibition at 10 µM | IC50 | % inhibition of PDE9A2 (at 10 micromolar concentration) | Compound
84% | 101 to 1200 nM | – | O=c1[nH]c(Cc2ccccn2)nc2c1cnn2C1CCCCO1 (racemic) [Example 145]
93% | 101 to 1200 nM | – | O=c1[nH]c(CCC(F)(F)F)nc2c1cnn2C1CCOCC1 [Example 34]
99% | 1 to 100 nM | – | O=c1[nH]c(CC2CCCC2)nc2c1cnn2C1CCOCC1 [Example 134]
95% | 101 to 1200 nM | – | CN(C)C(=O)N1CCCC(n2ncc3c(=O)[nH]c(Cc4ccccc4OC(F)(F)F)nc32)C1 (racemic) [Example 161]
100% | 1 to 100 nM | – | O=c1[nH]c(Cc2ccc(F)c(Br)c2)nc2c1cnn2C1CCOCC1 [Example 136]
99% | 1 to 100 nM | – | O=c1[nH]c(Cc2cccc(C(F)(F)F)c2)nc2c1cnn2C1CCOCC1 [Example 44]
93% | 101 to 1200 nM | – | CC(=O)N1CCC(n2ncc3c(=O)[nH]c(Cc4ccccc4)nc32)CC1 [Example 152]
92% | 101 to 1200 nM | – | COc1ccc(C2CCCCC2Cc2nc3c(cnn3C3CCOCC3)c(=O)[nH]2)cn1 (racemic) [Example 40-4]
91% | 101 to 1200 nM | – | O=c1[nH]c(Cc2ccccc2)nc2c1cnn2C1CCCNC1 (racemic) [Example 197]
97% | 1 to 100 nM | – | CC(=O)N1CCCC(n2ncc3c(=O)[nH]c(Cc4ccccc4)nc32)C1 (racemic) [Example 158]
98% | 1 to 100 nM | – | COc1ccc(Cc2nc3c(cnn3C3CCOCC3)c(=O)[nH]2)cc1 [Example 11]
99% | 1 to 100 nM | – | O=c1[nH]c(Cc2ccccc2OC(F)(F)F)nc2c1cnn2C1CCCOC1 (racemic) [Example 91]
92% | 101 to 1200 nM | – | CC(C)(C)OC(=O)N1CCC(n2ncc3c(=O)[nH]c(Cc4ccccc4)nc32)C1 (racemic) [Example 15]
99% | 1 to 100 nM | – | N#Cc1ccccc1Cc1nc2c(cnn2C2CCOCC2)c(=O)[nH]1 [Example 53]
90% | 101 to 1200 nM | – | O=c1[nH]c(C(F)(F)c2ccccc2)nc2c1cnn2C1CCOCC1 [Example 13]
95% | 1 to 100 nM | – | O=c1[nH]c(Cc2ccccc2OC2CCCC2)nc2c1cnn2C1CCOCC1 [Example 125]
98% | 1 to 100 nM | – | O=C(Oc1ccc(F)cc1)N1CCCC(n2ncc3c(=O)[nH]c(CC4CCCC4)nc32)C1 (racemic) [Example 162]
97% | 1 to 100 nM | – | O=c1[nH]c(CC2CCC(F)(F)CC2)nc2c1cnn2C1CCOCC1 [Example 40-6]
91% | 101 to 1200 nM | – | O=c1[nH]c(Cc2ncccn2)nc2c1cnn2C1CCOCC1 [Example 66]
98% | 1 to 100 nM | – | O=c1[nH]c(Cc2cc(F)cc(F)c2)nc2c1cnn2C1CCOCC1 [Example 7]
97% | 101 to 1200 nM | – | O=c1[nH]c(CC2CCCC2)nc2c1cnn2C1CCNC1 (racemic) [Example 194]
100% | 101 to 1200 nM | – | CN1CCCC(n2ncc3c(=O)[nH]c(CC4CCCC4)nc32)C1 (racemic) [Example 208]

inhibition at 10 µM | IC50 | % inhibition of PDE9A2 (at 10 micromolar concentration) | Compound
95% | 1 to 100 nM | – | O=c1[nH]c(Cc2cccc(C(F)(F)F)c2)nc2c1cnn2C1CCCCO1 (racemic) [Example 147-3]
86% | 101 to 1200 nM | – | CN1CCC(n2ncc3c(=O)[nH]c(Cc4ccccc4)nc32)CC1 [Example 148]
98% | 1 to 100 nM | – | CCC(C)Cc1nc2c(cnn2C2CCCOC2)c(=O)[nH]1 (mixture of isomers) [Example 95]
93% | 101 to 1200 nM | – | CC(C)Cc1nc2c(cnn2C2CCCN(C(=O)c3ccccc3)C2)c(=O)[nH]1 (racemic) [Example 177]
– | 1 to 100 nM | 98% | CC(C)Cc1nc2c(cnn2C2CCOC2)c(=O)[nH]1 (single isomer, unassigned) [Example 132-4]
96% | 1 to 100 nM | – | O=c1[nH]c(CCCC(F)(F)F)nc2c1cnn2C1CCOCC1 [Example 25]
– | 1 to 100 nM | 100% | CC1COCCC1n1ncc2c(=O)[nH]c(CC3CCCC3)nc21 (racemic) [Example 132-5]
84% | 101 to 1200 nM | – | O=c1[nH]c(Cc2ccccc2OC(F)(F)F)nc2c1cnn2C1CCNCC1 [Example 203]
99% | 1 to 100 nM | – | COc1ccc(Cc2nc3c(cnn3C3CCOCC3)c(=O)[nH]2)cc1F [Example 27]
100% | 101 to 1200 nM | – | O=c1[nH]c(Cc2ccccc2OC(F)(F)F)nc2c1cnn2C1CCCNC1 (racemic) [Example 198]
97% | 1 to 100 nM | – | CC(C)Cc1nc2c(cnn2C2CCOCC2C)c(=O)[nH]1 (racemic) [Example 132-1]
82% | 101 to 1200 nM | – | CN(C)C(=O)N1CCC(n2ncc3c(=O)[nH]c(Cc4ccccc4)nc32)C1 (racemic) [Example 190]
97% | 1 to 100 nM | – | CC(C)Oc1ccccc1Cc1nc2c(cnn2C2CCOCC2)c(=O)[nH]1 [Example 54]
95% | 101 to 1200 nM | – | Cc1cccn(-c2ccccc2Cc2nc3c(cnn3C3CCOCC3)c(=O)[nH]2)c1=O [Example 40-7]
– | 101 to 1200 nM | 89% | CC1CC(n2ncc3c(=O)[nH]c(Cc4ccccn4)nc32)CCO1 (racemic) [Example 118]
98% | 1 to 100 nM | – | O=c1[nH]c(Cc2ccccc2C(F)(F)F)nc2c1cnn2C1CCOCC1 [Example 45]
90% | 101 to 1200 nM | – | COc1ccccc1Cc1nc2c(cnn2C2CCN(C(C)=O)C2)c(=O)[nH]1 (racemic) [Example 168]
92% | 101 to 1200 nM | – | O=c1[nH]c(Cc2ncccc2C(F)(F)F)nc2c1cnn2C1CCOCC1 [Example 63]
97% | 1 to 100 nM | – | CC(Cc1nc2c(cnn2C2CCOCC2)c(=O)[nH]1)C(F)(F)F (single isomer, unassigned) [Example 131]
86% | 101 to 1200 nM | – | Cc1nc(Cc2nc3c(cnn3C3CCOCC3)c(=O)[nH]2)c(C)s1 [Example 24]
98% | 1 to 100 nM | – | O=c1[nH]c(Cc2ccccc2C(F)(F)F)nc2c1cnn2C1CCCOC1 (racemic) [Example 97]
